Where two headings read alike, the source gives them in different places.
Experiments:
[1] = Sink Conditions dissolution testing of Formulation C5-12; assay type: physicochemical; settings: N = 6
Description: The release profiles of Formulation C5-12 of Example 1 were evaluated in a Sink Conditions dissolution study. The study was conducted in 900 mL of dissolution medium using a standard USP dissolution Apparatus 2 (paddle) operating at 100 RPM at 37±0.5° C. The dissolution medium was a 0.05 M sodium phosphate buffer pH 6.8 with 15 mM cTAB as a surfactant.

[2] = Human pharmacokinetic study, Example 4 Arm II (single dose, crossover); assay type: in vivo; settings: human, in vivo
Description: Formulation C5-12 and a second formulation were tested in Arm II of the study. Adult male and female subjects (N=30 for combined Arm I and Arm II studies) in general good health were selected to participate in the study according to the selection criteria. Subjects meeting the selection criteria were randomly assigned to one of the Regimen sequences as shown below in Table 4-A.
Study drug was administered as provided below in Table 4-B.
Each study regimen was taken orally with approximately 240 mL of water approximately 30 minutes after the start of standardized breakfast. Study regimens were administered orally in the morning on Study Day 1 of each period. For Regimen A the evening dose of the Single Tablet was taken orally with approximately 240 mL of water approximately 30 minutes after the start of the evening snack. Serial blood samples for pharmacokinetic analysis were collected 72 hours after dosing in each period.
The data presented in Tables 4-C through 4-G are preliminary data and are subject to database lock and final data verification.

[3] = Human pharmacokinetic study, Example 4 Arm III (14-day multiple dose, steady state); assay type: in vivo
[4] = Human pharmacokinetic study, Example 5 Arm I (single dose, replicated crossover); assay type: in vivo; settings: single dose, non-fasting
Description: (§1) A Phase 1, non-fasting, open-label, two-arm, four-period, randomized, crossover study was conducted to compare and characterize the pharmacokinetics of (i) Triple Tablet when co-administered with Single Tablet, and (ii) Formulation C5-12 as discussed below. Part 1 was a single dose, two-treatment, randomized, four period, two sequence replicated crossover study with 88 subjects. Doses in the four periods were separated by at least 10 days. Part 2 was a multiple-dose, two-treatment, two period, randomized crossover study with 66 subjects. Dosing in each period was 14 days and doses in the two periods were separated by at least 10 days.
(§2) Adult male and female subjects in general good health were selected to participate in the study according to the selection criteria. Subjects meeting the selection criteria were randomly assigned to one of the sequences of Regimens A and B (four sequences for Arm I and two sequences for Arm II) as shown below in Table 5-A.
(§3) Study drug was administered as provided below in Table 5-B.
(§4) Each study regimen was taken orally with approximately 240 mL of water approximately 30 minutes after the start of standardized breakfast. Study regimens were administered orally in the morning on Study Day 1 of each period. Serial blood samples for pharmacokinetic analysis were collected 72 hours after dosing in each period.
Tables 5-C, 5-D, 5-E, and 5-F below report the Arm I pharmacokinetic data for Formulation C5-12 (separately reported for each of Compounds 1, 2, 3, and 4). Table 5-G presents the results of a relative bioavailability and 90% confidence interval analysis of the pharmacokinetic data for Formulation C5-12 relative to the reference regimen. The data presented in Tables 5-C through 5-G are preliminary data and are subject to database lock and final data verification by the statistician.

[5] = Human pharmacokinetic study, Example 5 Arm II (multiple dose, crossover); assay type: in vivo; settings: in vivo
Description: as §1, §2, §3, §4

[6] = Solubility (general statement); assay type: physicochemical; settings: aqueous
[7] = Formulation C5-12, Day 14 versus Day 1
[8] = human, in vivo, oral, 3 Formulation C5-12 tablets daily, three Formulation C5-12 tablets daily for 14 days, non-fasting, Day 14, N = 14
[9] = three Formulation C5-12 tablets daily for 14 days, non-fasting, Day 1, N = 14
[10] = Regimen B (reference regimen): two Triple Tablets + one Single Tablet morning, one Single Tablet evening, N = 171

For COC(=O)N[C@H](C(=O)N1CCC[C@H]1C(=O)Nc1ccc([C@@H]2CC[C@@H](c3ccc(NC(=O)[C@@H]4CCCN4C(=O)[C@@H](NC(=O)OC)C(C)C)cc3)N2c2ccc(C(C)(C)C)cc2)cc1)C(C)C [Compound 2], the “% Released” value ([1]; 1 hour, 900 mL 0.05 M sodium phosphate buffer pH 6.8, 15 mM cTAB, USP Apparatus 2, 100 RPM, 37 °C) was 55%, the “% Released” value ([1]; 4 hours, pH 6.8 buffer, 15 mM cTAB) was 98% and the “% Released” value ([1]; 6 hours, pH 6.8 buffer, 15 mM cTAB) was 99%. For the same molecule, the “% Released” value ([1]; 8 hours, pH 6.8 buffer, 15 mM cTAB) was 103%, the “% Released” value ([1]; 12 hours, pH 6.8 buffer, 15 mM cTAB) was 102% and the “% Released” value ([1]; 16 hours, pH 6.8 buffer, 15 mM cTAB) was 102%. For the same molecule, the “AUCt, geometric mean” value ([2]; both) was 1510 ng·h/mL, the “AUC∞, geometric mean” value ([2]; both) was 1670 ng·h/mL and the “Cmax, geometric mean” value ([2]; both) was 117 ng/mL. The Tmax ([2]; both) was 5.2 h, the t1/2 ([2]; both) was 23.2 h and the “C24, arithmetic mean, % CV” value ([2]; both, 24 h) was “(19.4, 29) ng/mL”. For the same molecule, the “C24, geometric mean” value ([2]; both, 24 h) was 18.7 ng/mL, the “AUCt, arithmetic mean, % CV” value [2] was “(1560, 25) ng · h/mL” and the “AUC∞, arithmetic mean, % CV” value [2] was “(1740, 29) ng · h/mL”. For the same molecule, the “Cmax, arithmetic mean, % CV” value [2] was “(122, 31) ng/mL”, the “Relative bioavailability, AUCinf, point estimate” value [2] was 1.022 and the “Relative bioavailability, Cmax, point estimate” value [2] was 1.038. For the same molecule, the “AUC24, RATIO” value [3, 7] was 1.34, the “C24, RATIO” value [3, 7] was 1.72 and the “Cmax, RATIO” value [3, 7] was 1.10. The Tmax ([3]; human, in vivo, oral, 3 Formulation C5-12 tablets daily, three Formulation C5-12 tablets daily for 14 days, non-fasting, Day 1, N = 14) was 5.5 h, the concentration at 24 h ([3]; human, in vivo, oral, 3 Formulation C5-12 tablets daily, three Formulation C5-12 tablets daily for 14 days, non-fasting, Day 1, N = 14, read-out: C24, geometric mean) was 23.4 ng/mL and the Tmax [3, 8] was 5.6 h. For the same molecule, the half-life [3, 8] was 29.8 h, the AUC ([3]; human, in vivo, oral, 3 Formulation C5-12 tablets daily, three Formulation C5-12 tablets daily for 14 days, non-fasting, Day 14, N = 14, read-out: AUC24, geometric mean) was 1720 ng·h/mL and the concentration at 24 h ([3]; human, in vivo, oral, 3 Formulation C5-12 tablets daily, three Formulation C5-12 tablets daily for 14 days, non-fasting, Day 14, N = 14, read-out: C24, geometric mean) was 40.2 ng/mL. The Cmax ([3]; human, in vivo, oral, 3 Formulation C5-12 tablets daily, three Formulation C5-12 tablets daily for 14 days, non-fasting, Day 14, N = 14, read-out: Cmax, geometric mean) was 135 ng/mL, the “AUC24, geometric mean” value [3, 9] was 1280 ng·h/mL and the “Cmax, geometric mean” value [3, 9] was 123 ng/mL. For the same molecule, the β ([3]; three Formulation C5-12 tablets daily for 14 days, non-fasting, Day 14, N = 14) was 0.023 h⁻¹, the half-life ([4]; both sexes, human, blood, oral, 3 film-coated Formulation C5-12 tablets, Regimen A (C5-12): three film-coated Formulation C5-12 tablets, N = 172) was 37.9 h and the AUC(0-t) ([4]; both sexes, human, blood, oral, 3 film-coated Formulation C5-12 tablets, Regimen A (C5-12): three film-coated Formulation C5-12 tablets, N = 172, read-out: AUCt, geometric mean) was 1660 ng·h/mL. For the same molecule, the AUC(0-inf) ([4]; both sexes, human, blood, oral, 3 film-coated Formulation C5-12 tablets, Regimen A (C5-12): three film-coated Formulation C5-12 tablets, N = 172, read-out: AUC∞, geometric mean) was 1800 ng·h/mL, the Tmax ([4]; both sexes, human, blood, oral, 3 film-coated Formulation C5-12 tablets, Regimen A (C5-12): three film-coated Formulation C5-12 tablets, N = 172, read-out: Tmax, first value (geometric mean)) was 5 h and the AUC(0-t) ([4]; both sexes, human, blood, oral, Regimen B (reference regimen): two Triple Tablets + one Single Tablet morning, one Single Tablet evening, N = 171, read-out: AUCt, geometric mean) was 1630 ng·h/mL. For the same molecule, the AUC(0-inf) ([4]; both sexes, human, blood, oral, Regimen B (reference regimen): two Triple Tablets + one Single Tablet morning, one Single Tablet evening, N = 171, read-out: AUC∞, geometric mean) was 1760 ng·h/mL, the Tmax ([4]; both sexes, human, blood, oral, Regimen B (reference regimen): two Triple Tablets + one Single Tablet morning, one Single Tablet evening, N = 171, read-out: Tmax, first value (geometric mean)) was 5 h and the “Cmax, geometric mean” value ([4]; Regimen A (C5-12): three film-coated Formulation C5-12 tablets, N = 172) was 124 ng/mL. For the same molecule, the “Cmax, geometric mean” value [4, 10] was 131 ng/mL, the t1/2 [4, 10] was 39.2 h and the “Exposures versus the reference regimen” value [5] was “bioequivalent”. The “Relative bioavailability, AUC24, point estimate” value [5] was 1.098, the “Relative bioavailability, AUCt, point estimate” value [5] was 1.091 and the “Relative bioavailability, Cmax, point estimate” value [5] was 1.087. The Solubility [6] was “low solubility”.

From patent US10105365B2, “Solid antiviral dosage forms” (AbbVie Inc., priority 2014, dated 2018)
